Experimental findings from patent publication US20190015383A1, “CANNABINOID COMPOSITIONS AND METHODS OF PREPARATION THEREOF” (5071, Inc., priority 2017, published 2019) are described below.

The nature of this series: Water solubility testing (solubility time in water). Conditions: 10 mg sample in 240 mL water, magnetic stirring. The class given is physicochemical. The procedure: Water solubility testing was performed for Compositions C, D1, D2, and E described in Examples 3, 4, and 6. Each composition was tested at temperatures of 22° C. (tap water) and 10° C. (iced tap water). For each test, 240 mL of water at the target temperature (22° C. or 10° C.) was added to a beaker and a magnetic stirrer used with medium agitation, creating a slight vortex. A 10 mg sample of the composition to be tested was added over a 1-2 second time period and allowed to mix. The time in seconds until no particulates were visually discernable (either suspended in solution or settled out) was recorded as the solubility time. The solubility of table sugar (i.e., granulated sucrose) was also tested according to the same procedure for comparison.
The following categories were used to assess solubility characteristics: <30 sec=excellent to good solubility, 1-3 min=fair solubility, 3-5 min=poor solubility, and >5 min=insoluble.

As for `OC[C@H]1O[C@@](CO)(O[C@H]2O[C@H](CO)[C@@H](O)[C@H](O)[C@H]2O)[C@@H](O)[C@@H]1O` [Table sugar, sucrose], the Solubility time is, setting by setting: (10° C. (iced tap water)) under 60 s; (22° C. (tap water)) 22 s.
